From patent US11046722B2, “Sulphated disaccharides for the treatment of neuropathic pain” (BIOIBERICA, S.A.U., priority 2017, dated 2021)

Experiments:
[1] = tested on: mechanical allodynia due to diabetes induced by injecting streptozotocin; assay: Diabetic allodynia induced by streptozotocin injection (von Frey, 50% pain threshold); format: in vivo, mice; details: streptozotocin 60 mg/Kg i.p. for five days, day 25, 45 minutes after administration
Description: In Example 5 an experimental trial is described of mechanical allodynia in diabetic mice induced by intraperitoneal streptozotocin injection, based on the model described in the article by Courteix et al., Streptozotocin-induced diabetic rats: behavioural evidence for a model of chronic pain, Pain, 1993, 81-88. This model is based on causing a mechanical allodynia in mice by inducing diabetes by means of intraperitoneal streptozotocin injection. It is observed that the administration of different doses of compound Ic is effective in reversing the allodynia induced by diabetes, as quantified by the statistically significant increase observed in the treated animals, of the threshold force that is necessary to apply in order to produce paw withdrawal in the animals (FIG. 7). […] For the evaluation of the effect of the Ic compound on the allodynia induced in this manner by diabetes, five groups of animals were used with at least 7 animals in each group, and the allodynia was quantified using von Frey filaments, according to the force threshold necessary to cause the animal's paw's withdrawal. Compound Ic was administered orally to the animals by gavage, in a single administration and allodynia was measured in each animal immediately before the administration and 45 minutes after the administration. […]

[2] = tested on: allodynia induced in mice by injecting paclitaxel; assay: Neuropathic pain induced by chemotherapy (paclitaxel): prevention by coadministration with paclitaxel; format: in vivo; details: 30 mg/Kg orally daily for 5 consecutive days coadministered with paclitaxel, evaluated on the 10th day
Procedure: In Example 3 an experimental model is used in mice based on inducing allodynia by intraperitoneal injection of paclitaxel, as described in the articles by Smith et al., Paclitaxel-induced neuropathic hypersensitivity in mice: responses in 10 inbred mouse strains, Life Sci., 2014, 2593-2604 and Palomano et al., Chemotherapy-evoked painful peripheral neuropathy, Pain Med., 2001, 2 (1), 8-14. In alternative trials, compound Ic was administered after allodynia induction by paclitaxel, or it was administered jointly with this chemotherapy medication. […]
In this test, groups of mice between 7 and 12 animals were used, to which a daily dose of paclitaxel of 2 mg/Kg was administered by intraperitoneal route for 5 consecutive days (except for the control group). The evaluation of the induced mechanical allodynia was carried out on the 10th day after the first paclitaxel injection, and was quantified by using the von Frey filaments, according to the force threshold necessary to cause the paw withdrawal of the animal.
A second trial was carried out using this same model, according to which a daily dose of compound Ic was administered orally, for 5 consecutive days, coadministered with paclitaxel. The allodynia was evaluated the 10th day after the beginning of the treatment. […]

For CO[C@H]1O[C@H](COS(=O)(=O)[O-])[C@@H](OS(=O)(=O)[O-])[C@H](O[C@@H]2O[C@H](C(=O)[O-])[C@@H](O)[C@H](O)[C@H]2O)[C@H]1NC(C)=O.[Na+].[Na+].[Na+] [Compound Ic, methyl 2-acetamido-2-desoxi-3-O-(β-D-glucopyranosyluronic acid)-4,6-di-O-sulfo-α-D-glucopyranoside trisodium salt], the “reversal of the allodynia induced by diabetes” value ([1]; 10 mg/kg single oral dose by gavage) was “effective at reversing the allodynia”, the “reversal of the allodynia induced by diabetes” value ([1]; 30 mg/kg single oral dose by gavage, differences statistically significant) was “effective at reversing the allodynia” and the “prevention of the development of allodynia” value [2] was “prevented the development of allodynia”.
